Data: US10759803B2, “Asparagine endopeptidase (AEP) inhibitors for managing cancer and compositions related thereto” (priority 2014, dated 2020)

Experiments:
Cathepsin = Cathepsin activity in OGD-treated primary neurons; assay type: cell-based; conditions: 5 μM D-Val-Leu-Lys-AMC
Protocol: A. AEP activity, measured in primary neuronal cultures with 5 μM Cbz-Ala-Ala-Asn-AMC (x-axis denotes neurons were treated with 0.1 μM or 1.0 μM specified compound). B. Caspase activity, measured in primary neuronal cultures with 5 μM Ac-Asp-Glu-Val-Asp-AMC. C. Cathepsin activity, measured in primary neuronal cultures with 5 μM D-Val-Leu-Lys-AMC. D. Inhibition of APP cleavage. Lysates of primary cortical neurons pre-incubated with compounds for 30 min, underwent OGD for 4 hrs, were reperfused for 18 hrs (normoxia neurons remained at normoxic conditions). E. APP can be cleaved in a dose-dependent manner. Lysates of primary cortical neurons pre-incubated with compounds for 30 min, underwent OGD for 4 hrs, were reperfused for 18 hrs (normoxia neurons remained at normoxic conditions).
Depriving cells of oxygen and glucose is a cellular model that is employed to trigger acidosis in cultured cells. The efficacy of the compounds in a cellular model of oxygen-glucose deprivation (OGD) was determined in an effort to mimic the effects of stroke in primary cultured neurons. As a result of depriving neurons of oxygen and glucose-containing medium, AEP activity was doubled (FIG. 7A, ‘DMSO-Norm’ compared to ‘DMSO-OGD’), while Caspase-3 and Cathepsin activities remained relatively unchanged. […]

AEP = biological target: T1, AEP (Homo sapiens, UniProt Q99538); assay: DTT / L-cysteine reversibility of AEP inhibition; assay type: biochemical; conditions: 10 mM DTT or L-cysteine added after 15 min
T1 construct: tested with purified active AEP, IC50 values for the top 8 candidates were found
T1 sequence (Q99538 18-323 limits assumed): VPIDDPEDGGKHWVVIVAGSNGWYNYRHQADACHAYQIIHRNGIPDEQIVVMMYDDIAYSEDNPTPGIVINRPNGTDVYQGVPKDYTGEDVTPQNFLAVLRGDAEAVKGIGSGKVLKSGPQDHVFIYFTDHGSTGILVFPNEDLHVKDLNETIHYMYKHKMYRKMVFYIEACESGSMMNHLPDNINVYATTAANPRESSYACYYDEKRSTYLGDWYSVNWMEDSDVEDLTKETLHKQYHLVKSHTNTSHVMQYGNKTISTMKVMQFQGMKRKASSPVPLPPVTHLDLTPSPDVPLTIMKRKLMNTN
Protocol: AEP was reacted with specified inhibitor, after 15 min 10 mM DTT or L-cysteine was added to the reaction and the fluorescent signal was read for an additional 15 min. At the end of the second 15 min incubation, the percentage of product formed in the presence of each compound was determined in comparison to the DMSO control reaction.
Although it is not intended that embodiments of this disclosure be limited by any particular mechanism, to gain additional insight into the mechanism utilized by the inhibitors for abrogation of AEP activity, their reversibility in the presence of free thiols was determined. The addition of a strong reducing agent, such as DTT, or a weaker reducing agent, L-cysteine, to an inhibited reaction can be used to out-compete the inhibitory agent and restore catalytic activity to an enzyme with an active-site thiol residue. Here, a similar approach was used by adding a reducing agent, either DTT or L-cysteine, to a reaction, in which AEP had been incubated with a specified inhibitor, in an attempt to reverse the effects of the inhibitor. […] For compounds BB1 and 38, this increase in enzymatic activity may be due to the reduction of a disulfide linkage between the inhibitor and the enzyme, since these compounds contain thiols. Compound 10 contains a thiocyanate and may undergoes nucleophilic attack by the enzyme's active-site thiolate to form a thioimidate enzyme-inhibitor complex. Under acidic conditions, this complex is reducible by either a strong reducing agent, such as DTT, or the weaker L-cysteine.

Row | Compound | decrease of Cathepsin activity in OGD neurons (Cathepsin) | AEP activity after addition of reducing agent (reversibility) (AEP)
1 | Nc1ccc(N2CCOCC2)c2nonc12 [Compound 11] | not observed | 
2 | Cn1c(=O)[nH]c(=O)c2c1nc(S)n2CC(O)COc1ccc(Cl)cc1 (centres unmarked) [Compound 38] |  | regained a substantial amount of activity
